# Test results from article PMC10178848, “Modulating fast skeletal muscle contraction protects skeletal muscle in animal models of Duchenne muscular dystrophy” (The Journal of Clinical Investigation, 2023).
# Test system: GRMD plasma proteins
# Type: in vivo, dog
# Conditions: Post-Treatment to GRMD baseline
structure (smiles),measurement,setting,value
O=c1ccc(-c2cnc(OCC(F)(F)F)nc2)nn1Cc1cncc(F)c1 [EDG-5506],Protein jagged-1 (JAG1): Change from GRMD Baseline (fraction),Decreased in GRMD,0.0021 fraction
same,Retinol-binding protein 4 (RBP4): Change from GRMD Baseline (fraction),Decreased in GRMD,0.0032 fraction
same,Roundabout homolog 2 (ROBO2): Change from GRMD Baseline (fraction),Decreased in GRMD,-0.0814 fraction
same,SLIT and NTRK-like protein 5 (SLITRK5): Change from GRMD Baseline (fraction),Decreased in GRMD,-0.2994 fraction
same,SPARC (SPARC): Change from GRMD Baseline (fraction),Decreased in GRMD,-0.1611 fraction
same,Sclerostin (SOST): Change from GRMD Baseline (fraction),Decreased in GRMD,0.0855 fraction
same,Semaphorin-3E (SEMA3E): Change from GRMD Baseline (fraction),Decreased in GRMD,-0.1435 fraction
same,Semaphorin-5A (SEMA5A): Change from GRMD Baseline (fraction),Decreased in GRMD,-0.108 fraction
same,Serum albumin (ALB): Change from GRMD Baseline (fraction),Decreased in GRMD,-0.0304 fraction
same,Sialic acid-binding Ig-like lectin 6 (SIGLEC6): Change from GRMD Baseline (fraction),Decreased in GRMD,0.0534 fraction
same,Stem cell growth factor-alpha (CLEC11A): Change from GRMD Baseline (fraction),Decreased in GRMD,-0.1896 fraction
same,T-lymphocyte surface antigen Ly-9 (LY9): Change from GRMD Baseline (fraction),Decreased in GRMD,0.0022 fraction
same,TGF-beta receptor type-2 (TGFBR2): Change from GRMD Baseline (fraction),Decreased in GRMD,0.1736 fraction
same,Tropomyosin alpha-1 chain (TPM1): Change from GRMD Baseline (fraction),Decreased in GRMD,0.8207 fraction
same,Tumor necrosis factor receptor superfamily member 10B (TNFRSF10B): Change from GRMD Baseline (fraction),Decreased in GRMD,-0.0324 fraction
same,Tumor necrosis factor-inducible gene 6 protein (TNFAIP6): Change from GRMD Baseline (fraction),Decreased in GRMD,1.4994 fraction
same,Wnt inhibitory factor 1 (WIF1): Change from GRMD Baseline (fraction),Decreased in GRMD,-0.1154 fraction
same,Activated Protein C (PROC): Change from GRMD Baseline (fraction),Increased in GRMD,0.4863 fraction
same,Adiponectin (ADIPOQ): Change from GRMD Baseline (fraction),Increased in GRMD,0.0194 fraction
same,Alanine aminotransferase 1 (GPT): Change from GRMD Baseline (fraction),Increased in GRMD,0.0095 fraction
same,Alpha-2-antiplasmin (SERPINF2): Change from GRMD Baseline (fraction),Increased in GRMD,-0.0109 fraction
same,Apolipoprotein D (APOD): Change from GRMD Baseline (fraction),Increased in GRMD,0.0538 fraction
same,Apolipoprotein L1 (APOL1): Change from GRMD Baseline (fraction),Increased in GRMD,-0.0015 fraction
same,Asialoglycoprotein receptor 1 (ASGR1): Change from GRMD Baseline (fraction),Increased in GRMD,-0.0063 fraction
same,Bone morphogenetic protein 1 (BMP1): Change from GRMD Baseline (fraction),Increased in GRMD,-0.0803 fraction
same,Breast cancer anti-estrogen resistance protein 3 (BCAR3): Change from GRMD Baseline (fraction),Increased in GRMD,-0.0258 fraction
same,C5a anaphylatoxin (C5): Change from GRMD Baseline (fraction),Increased in GRMD,-0.0743 fraction
same,C-C motif chemokine 1 (CCL1): Change from GRMD Baseline (fraction),Increased in GRMD,0.0039 fraction
same,C-C motif chemokine 3 (CCL3): Change from GRMD Baseline (fraction),Increased in GRMD,-0.0317 fraction
same,C-X-C motif chemokine 5 (CXCL5): Change from GRMD Baseline (fraction),Increased in GRMD,0.0104 fraction
same,CD63 antigen (CD63): Change from GRMD Baseline (fraction),Increased in GRMD,-0.0301 fraction
same,CD97 antigen (CD97): Change from GRMD Baseline (fraction),Increased in GRMD,0.0218 fraction
same,CD109 antigen (CD109): Change from GRMD Baseline (fraction),Increased in GRMD,0.0141 fraction
same,CD177 antigen (CD177): Change from GRMD Baseline (fraction),Increased in GRMD,-0.108 fraction
same,Carbonic anhydrase 4 (CA4): Change from GRMD Baseline (fraction),Increased in GRMD,0.0571 fraction
same,Caspase-3 (CASP3): Change from GRMD Baseline (fraction),Increased in GRMD,-0.049 fraction
same,Cell adhesion molecule 3 (CADM3): Change from GRMD Baseline (fraction),Increased in GRMD,0.0642 fraction
same,"Change from GRMD Baseline (fraction): 1-phosphatidylinositol 4,5-bisphosphate phosphodiesterase gamma-1 (PLCG1)",Increased in GRMD,0.0175 fraction
same,"Change from GRMD Baseline (fraction): 14-3-3 protein family (YWHAB,YWHAE,YWHAG,YWHAH,YWHAQ,YWHAZ,SFN)",Increased in GRMD,-0.0622 fraction
same,Change from GRMD Baseline (fraction): 26S proteasome non-ATPase regulatory subunit 7 (PSMD7),Increased in GRMD,-0.0966 fraction
same,Change from GRMD Baseline (fraction): 40S ribosomal protein S7 (RPS7),Increased in GRMD,-0.1727 fraction
same,Change from GRMD Baseline (fraction): A disintegrin and metalloproteinase with thrombospondin motifs 5 (ADAMTS5),Increased in GRMD,0.0247 fraction
same,Change from GRMD Baseline (fraction): A disintegrin and metalloproteinase with thrombospondin motifs 15 (ADAMTS15),Increased in GRMD,0.1616 fraction
same,Change from GRMD Baseline (fraction): AH receptor-interacting protein (AIP),Increased in GRMD,0.0125 fraction
same,Change from GRMD Baseline (fraction): AMP Kinase (alpha2beta2gamma1) (PRKAA2 PRKAB2 PRKAG1),Increased in GRMD,-0.177 fraction
same,"Change from GRMD Baseline (fraction): ATP synthase subunit beta, mitochondrial (ATP5B)",Increased in GRMD,0.0065 fraction
same,Change from GRMD Baseline (fraction): ATP-dependent RNA helicase DDX19B (DDX19B),Increased in GRMD,-0.0978 fraction
same,Change from GRMD Baseline (fraction): Acidic leucine-rich nuclear phosphoprotein 32 family member B (ANP32B),Increased in GRMD,-0.0886 fraction
same,Change from GRMD Baseline (fraction): Activin receptor type-1B (ACVR1B),Increased in GRMD,-0.017 fraction
same,Change from GRMD Baseline (fraction): Adenylate kinase isoenzyme 1 (AK1),Increased in GRMD,-0.2055 fraction
same,Change from GRMD Baseline (fraction): Adenylosuccinate lyase (ADSL),Increased in GRMD,0.0105 fraction
same,Change from GRMD Baseline (fraction): Afamin (AFM),Increased in GRMD,-0.0171 fraction
same,Change from GRMD Baseline (fraction): Aflatoxin B1 aldehyde reductase member 2 (AKR7A2),Increased in GRMD,-0.0506 fraction
same,Change from GRMD Baseline (fraction): Alcohol dehydrogenase [NADP(+)] (AKR1A1),Increased in GRMD,-0.1025 fraction
same,Change from GRMD Baseline (fraction): Aminoacylase-1 (ACY1),Increased in GRMD,-0.1248 fraction
same,Change from GRMD Baseline (fraction): Amphoterin-induced protein 2 (AMIGO2),Increased in GRMD,-0.0371 fraction
same,Change from GRMD Baseline (fraction): Annexin A6 (ANXA6),Increased in GRMD,-0.0862 fraction
same,Change from GRMD Baseline (fraction): Anterior gradient protein 2 homolog (AGR2),Increased in GRMD,0.2414 fraction
same,Change from GRMD Baseline (fraction): Apolipoprotein E (APOE),Increased in GRMD,0.0948 fraction
same,Change from GRMD Baseline (fraction): Apolipoprotein E (isoform E3) (APOE),Increased in GRMD,0.08 fraction
same,Change from GRMD Baseline (fraction): Apolipoprotein E (isoform E4) (APOE),Increased in GRMD,0.1456 fraction
same,Change from GRMD Baseline (fraction): Apoptosis regulator Bcl-2 (BCL2),Increased in GRMD,0.0105 fraction
same,Change from GRMD Baseline (fraction): Artemin (ARTN),Increased in GRMD,-0.0439 fraction
same,Change from GRMD Baseline (fraction): Arylsulfatase B (ARSB),Increased in GRMD,-0.1402 fraction
same,Change from GRMD Baseline (fraction): B-cell receptor CD22 (CD22),Increased in GRMD,-0.069 fraction
same,Change from GRMD Baseline (fraction): Baculoviral IAP repeat-containing protein 5 (BIRC5),Increased in GRMD,0.0116 fraction
same,Change from GRMD Baseline (fraction): Basal Cell Adhesion Molecule (BCAM),Increased in GRMD,-0.0408 fraction
same,Change from GRMD Baseline (fraction): Bcl-2-like protein 1 (BCL2L1),Increased in GRMD,0.0111 fraction
same,Change from GRMD Baseline (fraction): Bone sialoprotein 2 (IBSP),Increased in GRMD,-0.0621 fraction
same,Change from GRMD Baseline (fraction): C-C motif chemokine 13 (CCL13),Increased in GRMD,-0.0609 fraction
same,Change from GRMD Baseline (fraction): C-C motif chemokine 23 (CCL23),Increased in GRMD,-0.0197 fraction
same,Change from GRMD Baseline (fraction): CCAAT/enhancer-binding protein beta (CEBPB),Increased in GRMD,-0.0884 fraction
same,Change from GRMD Baseline (fraction): CD59 glycoprotein (CD59),Increased in GRMD,0.0101 fraction
same,Change from GRMD Baseline (fraction): Calcineurin (PPP3CA PPP3R1),Increased in GRMD,-0.1169 fraction
same,Change from GRMD Baseline (fraction): Calcineurin subunit B type 1 (PPP3R1),Increased in GRMD,0.0394 fraction
same,Change from GRMD Baseline (fraction): Calcium/calmodulin-dependent protein kinase type 1 (CAMK1),Increased in GRMD,-0.0409 fraction
same,Change from GRMD Baseline (fraction): Calcium/calmodulin-dependent protein kinase type 1D (CAMK1D),Increased in GRMD,-0.0326 fraction
same,Change from GRMD Baseline (fraction): Calcium/calmodulin-dependent protein kinase type II subunit alpha (CAMK2A),Increased in GRMD,-0.2874 fraction
same,Change from GRMD Baseline (fraction): Calcium/calmodulin-dependent protein kinase type II subunit beta (CAMK2B),Increased in GRMD,-0.2753 fraction
same,Change from GRMD Baseline (fraction): Calcium/calmodulin-dependent protein kinase type II subunit delta (CAMK2D),Increased in GRMD,-0.216 fraction
same,Change from GRMD Baseline (fraction): Calpain I (CAPN1 CAPNS1),Increased in GRMD,0.0953 fraction
same,Change from GRMD Baseline (fraction): Calpastatin (CAST),Increased in GRMD,-0.0561 fraction
same,Change from GRMD Baseline (fraction): Carbonic anhydrase 3 (CA3),Increased in GRMD,-0.1807 fraction
same,Change from GRMD Baseline (fraction): Cardiotrophin-1 (CTF1),Increased in GRMD,-0.0345 fraction
same,Change from GRMD Baseline (fraction): Catalase (CAT),Increased in GRMD,-0.0112 fraction
same,Change from GRMD Baseline (fraction): Choline/ethanolamine kinase (CHKB),Increased in GRMD,-0.0392 fraction
same,Change from GRMD Baseline (fraction): Chymase (CMA1),Increased in GRMD,-0.0173 fraction
same,Change from GRMD Baseline (fraction): Clusterin (CLU),Increased in GRMD,0.1057 fraction
same,Change from GRMD Baseline (fraction): Complement component C6 (C6),Increased in GRMD,0.2667 fraction
same,Change from GRMD Baseline (fraction): Complement component C8 (C8A C8B C8G),Increased in GRMD,0.004 fraction
same,Change from GRMD Baseline (fraction): Complement factor D (CFD),Increased in GRMD,0.0267 fraction
same,Change from GRMD Baseline (fraction): Creatine kinase M-type (CKM),Increased in GRMD,-0.092 fraction
same,Change from GRMD Baseline (fraction): Creatine kinase M-type:Creatine kinase B-type heterodimer (CKB CKM),Increased in GRMD,-0.1124 fraction
same,Change from GRMD Baseline (fraction): Cyclin-dependent kinase inhibitor 1B (CDKN1B),Increased in GRMD,-0.1243 fraction
same,Change from GRMD Baseline (fraction): Cysteine and glycine-rich protein 3 (CSRP3),Increased in GRMD,-0.1208 fraction
same,Change from GRMD Baseline (fraction): Cytochrome c (CYCS),Increased in GRMD,-0.3895 fraction
same,Change from GRMD Baseline (fraction): DNA repair protein RAD51 homolog 1 (RAD51),Increased in GRMD,0.0454 fraction
same,Change from GRMD Baseline (fraction): Desmoglein-1 (DSG1),Increased in GRMD,0.0063 fraction
same,Change from GRMD Baseline (fraction): Dickkopf-like protein 1 (DKKL1),Increased in GRMD,-0.0126 fraction
same,Change from GRMD Baseline (fraction): Down syndrome cell adhesion molecule (DSCAM),Increased in GRMD,-0.0254 fraction
same,Change from GRMD Baseline (fraction): Dual specificity mitogen-activated protein kinase kinase 1 (MAP2K1),Increased in GRMD,-0.2424 fraction
same,Change from GRMD Baseline (fraction): Dual specificity protein phosphatase 3 (DUSP3),Increased in GRMD,-0.1403 fraction
same,Change from GRMD Baseline (fraction): Dynein light chain roadblock-type 1 (DYNLRB1),Increased in GRMD,-0.3202 fraction
same,Change from GRMD Baseline (fraction): Ectonucleoside triphosphate diphosphohydrolase 1 (ENTPD1),Increased in GRMD,-0.0389 fraction
same,Change from GRMD Baseline (fraction): Endothelin-converting enzyme 1 (ECE1),Increased in GRMD,-0.0078 fraction
same,Change from GRMD Baseline (fraction): Ephrin type-A receptor 1 (EPHA1),Increased in GRMD,-0.0034 fraction
same,Change from GRMD Baseline (fraction): Ephrin type-B receptor 6 (EPHB6),Increased in GRMD,0.0412 fraction
same,Change from GRMD Baseline (fraction): Epidermal growth factor (EGF),Increased in GRMD,-0.0427 fraction
same,Change from GRMD Baseline (fraction): Epidermal growth factor receptor variant III (EGFR),Increased in GRMD,-0.0407 fraction
same,Change from GRMD Baseline (fraction): Erythropoietin receptor (EPOR),Increased in GRMD,-0.0103 fraction
same,Change from GRMD Baseline (fraction): Estrogen receptor (ESR1),Increased in GRMD,-0.0238 fraction
same,Change from GRMD Baseline (fraction): Eukaryotic translation initiation factor 4H (EIF4H),Increased in GRMD,-0.3775 fraction
same,Change from GRMD Baseline (fraction): Eukaryotic translation initiation factor 4 gamma 2 (EIF4G2),Increased in GRMD,-0.2701 fraction
same,Change from GRMD Baseline (fraction): Extracellular matrix protein 1 (ECM1),Increased in GRMD,0.014 fraction
same,Change from GRMD Baseline (fraction): Fibroblast growth factor 8 isoform B (FGF8),Increased in GRMD,-0.0376 fraction
same,Change from GRMD Baseline (fraction): Fibroblast growth factor 9 (FGF9),Increased in GRMD,-0.0507 fraction
same,Change from GRMD Baseline (fraction): Fibronectin Fragment 4 (FN1),Increased in GRMD,-0.0265 fraction
same,Change from GRMD Baseline (fraction): Follistatin (FST),Increased in GRMD,-0.0231 fraction
same,Change from GRMD Baseline (fraction): Fractalkine (CX3CL1),Increased in GRMD,0.0106 fraction
